Reference: patent publication US20230346827A1 (priority 2020, published 2023)

Tested on: rats subjected to sTBI
Assay: sTBI rats, LMW-DS 1, 5, 15 mg/kg s.c. 30 min post-TBI: HPLC of brain energy metabolites, antioxidants, oxidative/nitrosative stress biomarkers (Example 4)
Type: in vivo, rat
Details: 1 mg/kg
Method: Male Wistar rats (n=160) of 300-350 g body weight were used in this study. They were fed with standard laboratory diet and water ad libitum in a controlled environment.
As the accepted anesthetic mixture, animals received 35 mg/kg b.w. ketamine and 0.25 mg/kg body weight midazolam by intramuscular injection. Diffuse sTBI was induced according to the “weight drop” impact acceleration model set up by Marmarou et al. J. Neurosurg. 1994, 80: 291-300. This model causes diffuse axonal injury and it is able to reproduce the physical and mechanical characteristics of the diffuse TBI in humans.
Severe TBI was induced by dropping a 450 g weight from 2 meters height onto the rat head protected by a helmet (metal disk previously fixed on the skull using dental cement) in order to uniformly distribute the mechanical force to the brain. Rats were placed prone on a bed of specific polyurethane foam inserted in a special container; this foam dissipates the major part of the potential energy (deriving from the mechanical forces) and prevents any rebound of the animal after the impact that could produce spinal damages.
After 2 or 7 days from TBI induction, rats were anesthetized again and then immediately sacrificed. These time points are coincident with the worst biochemical derangement (2 days) or, in the case of a mildly injured brain, with a full metabolic recovery (7 days).
The drug treatment consisted in a subcutaneous injection of 0.5 ml of LMW-DS (ILB®, Tikomed, Viken, Sweden, WO 2016/076780) and administered at 3 different concentrations (1, 5 and 15 mg/kg body weight), according to the schematic protocol described below. Sham-operated animals underwent the same procedure of anesthesia but TBI and were used as the control group.
(§1) Rats subjected to sTBI and receiving a single administration of LMW-DS after 30 minutes post-TBI, with sacrifice at 2 days post-TBI. Animals were divided in the following subgroups: • 1. 12 animals subjected to sTBI and treated with 1 mg/kg b.w. LMW-DS • 2. 12 animals subjected to sTBI and treated with 5 mg/kg b.w. LMW-DS • 3. 12 animals subjected to sTBI and treated with 15 mg/kg b.w. LMW-DS
as §1, with “at 7” for “at 2”
Rats (n = 12) subjected to sTBI and receiving repeated administrations of the maximal dose of LMW-DS (15 mg/kg b.w.) after 30 minutes, 3 days and 5 days post-TBI, with sacrifice at 7 days post-TBI. Four additional rats were used for the histo-morphological studies. Total rats in this group: n=16
To minimize metabolite loss, an in vivo craniectomy was performed in all animals during anesthesia. The rat skull was carefully removed, the brain was exposed, sharply cut along the sagittal fissure and the two hemispheres were separated. The hemispheres dedicated to biochemical analyses were freeze-clamped by aluminum tongues pre-cooled in liquid nitrogen and then immersed in liquid nitrogen. The freeze-clamping procedure was introduced to accelerate freezing of the tissue, thus minimizing potential metabolite loss.
Tissue homogenization for metabolite analyses was effected as described below. After the wet weight (w.w.) determination, the frozen hemispheres were placed into 7 ml of ice-cold, nitrogen-saturated, precipitating solution (1:10 w/v) composed by CH3CN + 10 mM KH2PO4, pH 7.40, (3:1; v:v), and the homogenization was performed using an Ultra-Turrax homogenizer set at 24,000 rpm/min (Janke & Kunkel, Staufen, Germany). […]

Substance: sodium salt of dextran sulfate [LMW-DS]
- ADENOSINE (2 d post-sTBI): 68.91 ± 16.50 nmol/g w.w.
- ADP (2 d post-sTBI): 333.90 ± 28.72 nmol/g w.w.
- ADP-Ribose (2 d post-sTBI): 25.69 ± 5.16 nmol/g w.w.
- AMP (2 d post-sTBI): 62.04 ± 7.46 nmol/g w.w.
- ASCORBIC ACID (2 d post-sTBI): 2567.35 ± 147.76 nmol/g w.w.
- ATP (2 d post-sTBI): 1696.96 ± 99.43 nmol/g w.w.
- Acetyl-CoA (2 d post-sTBI): 27.74 ± 3.23 nmol/g w.w.
- CDP choline (2 d post-sTBI): 8.23 ± 1.22 nmol/g w.w.
- CMP (2 d post-sTBI): 29.39 ± 6.00 nmol/g w.w.
- CREATININE (2 d post-sTBI): 17.66 ± 3.29 nmol/g w.w.
- CTP (2 d post-sTBI): 33.01 ± 7.63 nmol/g w.w.
- CYTIDINE (2 d post-sTBI): 13.79 ± 2.49 nmol/g w.w.
- CYTOSINE (2 d post-sTBI): 13.47 ± 1.65 nmol/g w.w.
- CoA-SH (2 d post-sTBI): 9.42 ± 1.04 nmol/g w.w.
- GDP (2 d post-sTBI): 189.85 ± 26.23 nmol/g w.w.
- GDP Glucose (2 d post-sTBI): 65.66 ± 41.61 nmol/g w.w.
- GMP (2 d post-sTBI): 205.06 ± 25.74 nmol/g w.w.
- GSH (2 d post-sTBI): 2337.06 ± 340.81 nmol/g w.w.
- GTP (2 d post-sTBI): 169.98 ± 17.93 nmol/g w.w.
- GUANINE (2 d post-sTBI): 1.62 ± 0.41 nmol/g w.w.
- GUANOSINE (2 d post-sTBI): 16.46 ± 2.73 nmol/g w.w.
- HYPOXANTHINE (2 d post-sTBI): 4.02 ± 0.66 nmol/g w.w.
- IMP (2 d post-sTBI): 45.97 ± 8.65 nmol/g w.w.
- INOSINE (2 d post-sTBI): 113.85 ± 14.84 nmol/g w.w.
- MDA (2 d post-sTBI): 44.00 ± 7.17 nmol/g w.w.
- Malonyl-CoA (2 d post-sTBI): 19.06 ± 4.04 nmol/g w.w.
- NADH (2 d post-sTBI): 9.42 ± 1.38 nmol/g w.w.
- NADPH (2 d post-sTBI): 13.07 ± 1.09 nmol/g w.w.
- NADP^+ (2 d post-sTBI): 11.79 ± 2.70 nmol/g w.w.
- NAD^+ (2 d post-sTBI): 325.87 ± 55.47 nmol/g w.w.
- NO2 (2 d post-sTBI): 158.36 ± 19.08 nmol/g w.w.
- NO3 (2 d post-sTBI): 99.16 ± 21.58 nmol/g w.w.
- UDP (2 d post-sTBI): 83.06 ± 8.52 nmol/g w.w.
- UDP-Gal (2 d post-sTBI): 118.50 ± 9.89 nmol/g w.w.
- UDP-GalNac (2 d post-sTBI): 21.24 ± 3.13 nmol/g w.w.
- UDP-Glc (2 d post-sTBI): 45.14 ± 6.68 nmol/g w.w.
- UDP-GlcNac (2 d post-sTBI): 96.62 ± 8.80 nmol/g w.w.
- UMP (2 d post-sTBI): 148.04 ± 20.45 nmol/g w.w.
- URACIL (2 d post-sTBI): 17.18 ± 3.36 nmol/g w.w.
- URIC ACID (2 d post-sTBI): 52.42 ± 10.75 nmol/g w.w.
- URIDINE (2 d post-sTBI): 79.93 ± 14.07 nmol/g w.w.
- UTP (2 d post-sTBI): 104.07 ± 16.34 nmol/g w.w.
- XANTHINE (2 d post-sTBI): 13.79 ± 1.43 nmol/g w.w.
- β-PSEUDOURIDINE (2 d post-sTBI): 11.64 ± 2.3 nmol/g w.w.
- NAD^+/NADH (2 d post-sTBI, adimensional ratio): 33.91 ± 9.32
- ADENOSINE (7 d post-sTBI): 26.08 ± 19.31 nmol/g w.w.
- ADP (7 d post-sTBI): 286.78 ± 38.19 nmol/g w.w.
- ADP-Ribose (7 d post-sTBI): 7.95 ± 1.99 nmol/g w.w.
- AMP (7 d post-sTBI): 43.13 ± 3.39 nmol/g w.w.
- ASCORBIC ACID (7 d post-sTBI): 2177.22 ± 262.21 nmol/g w.w.
- ATP (7 d post-sTBI): 1792.01 ± 144.16 nmol/g w.w.
- Acetyl-CoA (7 d post-sTBI): 27.05 ± 4.61 nmol/g w.w.
- CDP choline (7 d post-sTBI): 6.26 ± 2.01 nmol/g w.w.
- CMP (7 d post-sTBI): 25.41 ± 10.81 nmol/g w.w.
- CREATININE (7 d post-sTBI): 6.57 ± 1.16 nmol/g w.w.
- CTP (7 d post-sTBI): 81.75 ± 31.55 nmol/g w.w.
- CYTIDINE (7 d post-sTBI): 29.67 ± 10.44 nmol/g w.w.
- CYTOSINE (7 d post-sTBI): 16.03 ± 3.44 nmol/g w.w.
- CoA-SH (7 d post-sTBI): 38.50 ± 4.94 nmol/g w.w.
- GDP (7 d post-sTBI): 121.72 ± 13.91 nmol/g w.w.
- GDP Glucose (7 d post-sTBI): 112.22 ± 13.13 nmol/g w.w.
- GMP (7 d post-sTBI): 113.06 ± 53.51 nmol/g w.w.
- GSH (7 d post-sTBI): 1627.30 ± 214.51 nmol/g w.w.
- GTP (7 d post-sTBI): 438.65 ± 39.88 nmol/g w.w.
- GUANINE (7 d post-sTBI): 6.86 ± 2.92 nmol/g w.w.
- GUANOSINE (7 d post-sTBI): 19.11 ± 3.98 nmol/g w.w.
- HYPOXANTHINE (7 d post-sTBI): 16.97 ± 4.94 nmol/g w.w.
- IMP (7 d post-sTBI): 80.16 ± 20.53 nmol/g w.w.
- INOSINE (7 d post-sTBI): 124.27 ± 13.94 nmol/g w.w.
- MDA (7 d post-sTBI): 32.98 ± 5.44 nmol/g w.w.
- Malonyl-CoA (7 d post-sTBI): 5.43 ± 0.98 nmol/g w.w.
- NADH (7 d post-sTBI): 8.20 ± 1.41 nmol/g w.w.
- NADPH (7 d post-sTBI): 18.91 ± 4.39 nmol/g w.w.
- NADP^+ (7 d post-sTBI): 39.94 ± 14.65 nmol/g w.w.
- NAD^+ (7 d post-sTBI): 268.14 ± 37.97 nmol/g w.w.
- NO2 (7 d post-sTBI): 93.04 ± 20.16 nmol/g w.w.
- NO3 (7 d post-sTBI): 153.62 ± 26.24 nmol/g w.w.
- UDP (7 d post-sTBI): 38.59 ± 5.43 nmol/g w.w.
- UDP-Gal (7 d post-sTBI): 130.20 ± 8.95 nmol/g w.w.
- UDP-GalNac (7 d post-sTBI): 15.85 ± 4.54 nmol/g w.w.
